Experimental findings from patent US20050272605A1, “Method to treat seeds” (priority 2002, published 2005) are described below.

The subject of assay [1] is Brachiaria dictyoneura seeds. Description: Germination test of Brachiaria dictyoneura seeds after scarification and aerated nitrate treatment (Example 1). Format: in vivo. The conditions noted are these: for % Germination 7 days (paper + water): paper substrate irrigated with water, after 7 months storage. The method, then: The tank is filled with an approximately 0.2% solution of potassium nitrate 16 in water, to level which will ensure that the seed-containing bags are just immersed. The seeds 15 are immersed at ambient temperature for about 10 to about 36 hours, during which time the tank is constantly aerated by a flow of air form the compressed air source through the perforated pipe 12. The bags are then removed form the tank 10 and allowed to drain for about 12 hours. If the seed being treated requires addition of further agents such as gibberellic acid or smoke extract, then suitable quantities of these ingredients in solution are poured over the draining seed, and mixed by hand. The seeds are then dried to between 8% and 14% moisture content, preferably 12% moisture content, and stored as required.
A lot of Brachiaria dictyoneura seeds were harvested manually (by cutting the panicle and sweating for six days in heaps, and then threshing) in Zapote, Pérez Zeledón, Costa Rica, in July 2000. The seeds were dried in the shade, classified to remove waste and stored at 15° C. and 60% relative humidity for six months. A 30 kg sample of this seed lot was then scarified for 30 minutes with concentrated sulphuric acid on Jan. 4, 2001. The seeds were dried to 12% moisture and then re-scarified for a further 15 minutes on Feb. 26, 2001. After the second scarification the seeds were soaked in potassium nitrate for 24 hours and drained for 12 hours by the process described above.
Small 50 g sub-samples of the same seed lot were also taken, some of which were scarified once or twice but not treated, and some of which only received the first 30-minute scarification, but were treated. The seeds were then dried carefully in the sun until they reached the 12% moisture content. A sample of the nitrate treated, double scarified seed was tested for germination on Mar. 8, 2001, using 3 replicates of […] pure seeds on a soil-based substrate, at approximately 35° C. during the day, and 15° C. during the night, with florescent and incandescent lighting during the day (12 hours), in closed plastic germination trays. The result was 79% germination after 26 days. The four samples were then stored for a further 7 months when the following germination test was carried out on Nov. 17, 2001, using 4 replicates of 100 seeds on a paper substrate irrigated with water, and the same growth conditions described above.

The test system of assay [2] is Brachiaria dictyoneura seeds. Description: Germination test of Brachiaria dictyoneura seeds after scarification, nitrate soaking and GA (Example 2). Format: in vivo. From the text: The seeds (two replicates of 100 seeds) were sown on a soil substrate with the same growth conditions described above.
The subject of assay [3] is Brachiaria brizantha seeds. The assay is described as follows: Germination test of acid-scarified Brachiaria brizantha seeds on soil or paper substrate (Example 3). Format: in vivo. The method, then: Effect of nitrate on a lot of acid-scarified Brachiaria brizantha imported from Brazil in July 2001, shortly after harvesting from the soil surface, using different substrates for the germination test.
The seeds were treated on Aug. 15, 2001 and after drying, samples were taken and tested for germination on Aug. 24, 2001. The soil substrate was maintained at the same moisture level throughout the test by weight. The paper substrate was maintained moist by irrigation from below, using a piece of plastic foam to separate the paper from the water in the base of the tray.

Assay [4] deals with Paspalum notatum seeds. The assay is described as follows: Germination of Paspalum notatum seeds, lot of 1997 (Example 4). Format: in vivo, Paspalum notatum (cv. Pensacola).
Assay [5] relates to Paspalum notatum seeds. Description: Germination of Paspalum notatum seeds, lot of 2001 (Example 5). Format: in vivo, Paspalum notatum cv Pensacola. To be noted: one scarification and aerated nitrate treatment.
Another assay concerns Panicum maximum seeds. The assay is described as follows: Germination of Panicum maximum seeds (Example 6). Format: in vivo, Panicum maximum cv. Tanzania. The conditions noted are these: scarified seeds.

For `O=[N+]([O-])[O-].[K+]` [Nitrate, potassium nitrate], the “% Germination 7 days (paper + water)” value in assay [1] (Scarified once, listed as Aerated nitrate treatment) worked out at 87.25c %; in assay [1] (Scarified once, listed as aerated nitrate treatment) it was 87%; in assay [1] (Scarified twice, listed as Aerated nitrate treatment), 93.00c %; in assay [1] (Scarified twice, listed as aerated nitrate treatment) it was 93%. For the same compound, the “germination after 26 days” value in assay [1] (double scarified seed, soil-based substrate, tested Mar. 8, 2001) is reported as 79%. Besides, in assay [1] (seedlings from treated seeds versus untreated), the seedling vigor result is listed as “greater vigor”. In addition, the entries for the “increase in germination due to nitrate treatment” value in assay [1] (seeds scarified once) and in assay [1] (seeds scarified twice) were 30% and 20%, respectively. In addition, the “% Germination 15 days (soil substrate)” value in assay [2] (Scarification once (20 minutes)) stood at 42.5b %; in assay [2] (Scarification twice (20 + 10 minutes)), 65.0c %. Also, the “% Germination 7 days” value in assay [3] (Paper substrate) is listed as 77cd %; in assay [3] (Soil substrate), 88de %. Also, the “% Germination 25 days” value in assay [3] (Paper substrate) worked out at 82cde %; in assay [3] (Soil substrate), 90e %. For the same compound, the “% Germination” value amounted to 64.8% in the assay on Paspalum notatum seeds [4] (Scarification 10 minutes), 63.5% with Paspalum notatum seeds [4] (Scarification 20 minutes), 79.0% in the assay on Paspalum notatum seeds [5] and 50.0% in the assay with Panicum maximum seeds.
